We go through 19 compounds from ChEMBL document CHEMBL1201862, “PubChem BioAssay data set” (2004).

Assay [1] relates to Vero. The assay is described as follows: mammalian cell viability reduction – secondary assay, cytotoxicity control for West Nile virus antiviral project, dose response (AID 1650). It counts as functional. To be noted: Chlorocebus sabaeus.
Assay [2] is described as follows: Trypanosoma cruzi growth suppression in host cells – NIH3T3 host cells, beta-gal luminescence, confirmation (AID 2044).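 Further: intracellular parasites grown in NIH/3T3 mouse fibroblasts as host cells; luminescent beta-galactosidase reporter signal from transgenic T. cruzi replicating inside host cells; inhibitors lower the luminescence signal.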 It counts as functional, cell-based.
Assay [3] is described as follows: NIH3T3 cell viability loss – ATP luminescence, mouse fibroblasts, counter-screen, dose response (AID 2010).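 Further: cells exposed to compound for about 90 hours before reading.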 In kind it is functional, cell-based.
In assay [4] the target is Disintegrin and metalloproteinase domain-containing protein 17 (Homo sapiens, UniProt P78536). Description: exosite inhibitors of ADAM17, dose response, biochemical (AID 743260).
Disintegrin and metalloproteinase domain-containing protein 17, sequence (P78536 whole entry, the tested form may be a part): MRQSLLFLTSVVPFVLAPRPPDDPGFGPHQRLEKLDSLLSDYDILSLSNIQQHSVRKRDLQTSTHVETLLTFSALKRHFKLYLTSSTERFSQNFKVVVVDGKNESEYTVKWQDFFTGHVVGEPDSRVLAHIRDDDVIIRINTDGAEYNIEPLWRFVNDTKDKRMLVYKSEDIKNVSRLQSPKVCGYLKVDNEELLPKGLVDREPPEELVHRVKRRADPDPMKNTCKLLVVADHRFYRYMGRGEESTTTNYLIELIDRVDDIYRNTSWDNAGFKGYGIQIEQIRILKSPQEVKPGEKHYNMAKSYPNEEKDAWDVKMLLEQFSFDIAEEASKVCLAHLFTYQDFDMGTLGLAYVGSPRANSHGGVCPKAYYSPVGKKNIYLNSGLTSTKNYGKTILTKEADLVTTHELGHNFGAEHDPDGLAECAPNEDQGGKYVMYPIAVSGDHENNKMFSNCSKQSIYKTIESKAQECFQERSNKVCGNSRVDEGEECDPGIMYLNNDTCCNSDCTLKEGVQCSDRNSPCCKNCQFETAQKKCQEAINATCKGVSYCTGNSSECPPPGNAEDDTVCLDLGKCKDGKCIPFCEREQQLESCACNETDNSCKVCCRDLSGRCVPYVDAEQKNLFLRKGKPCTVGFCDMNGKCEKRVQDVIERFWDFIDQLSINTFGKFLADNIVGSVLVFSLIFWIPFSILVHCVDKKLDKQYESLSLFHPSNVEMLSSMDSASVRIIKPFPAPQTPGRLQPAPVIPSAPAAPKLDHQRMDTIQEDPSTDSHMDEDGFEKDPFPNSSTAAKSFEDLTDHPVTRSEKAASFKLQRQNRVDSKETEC
Assay [5] in a line: inhibition of ADAM10 peptide cleavage – biochemical, FRET peptide substrate, recombinant human ADAM10, selectivity assay for ADAM17 exosite inhibitor project, dose response (AID 743259).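 Further: ADAM10 enzyme cleaving a FRET peptide substrate.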
Assay [6] can be described thus: cytotoxicity in MITF-independent A375 cells – cell-based, CellTiter-Glo luminescence, dry powder, set 4, counter-screen for MITF inhibitor project, dose response (AID 624364).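 Further: A375 melanoma cells are MITF independent so this is a counter screen.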 In kind it is functional. To be noted: A-375. A general note: In ATP-based viability assays light output follows the ATP content of the culture.
Assay [7] is described as follows: viability loss in MITF-independent A375 cells – cell-based, CellTiter-Glo luminescence, dry powder, set 2, counter-screen for MITF inhibitor project, dose response (AID 624489).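 Further: actives are compounds lowering A375 viability meaning general cytotoxicity.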 It counts as functional. To be noted: A-375.
A short description of assay [8]: Potency on glucagon-like peptide 1 release, dose-response in NCI-H716 cell line, half maximal inhibitory concentration (AID 1117344). It counts as functional, cell-based.
Assay [9] addresses T1, Apoptotic protease-activating factor 1 (Homo sapiens, UniProt O14727).
T1 sequence (O14727 whole entry): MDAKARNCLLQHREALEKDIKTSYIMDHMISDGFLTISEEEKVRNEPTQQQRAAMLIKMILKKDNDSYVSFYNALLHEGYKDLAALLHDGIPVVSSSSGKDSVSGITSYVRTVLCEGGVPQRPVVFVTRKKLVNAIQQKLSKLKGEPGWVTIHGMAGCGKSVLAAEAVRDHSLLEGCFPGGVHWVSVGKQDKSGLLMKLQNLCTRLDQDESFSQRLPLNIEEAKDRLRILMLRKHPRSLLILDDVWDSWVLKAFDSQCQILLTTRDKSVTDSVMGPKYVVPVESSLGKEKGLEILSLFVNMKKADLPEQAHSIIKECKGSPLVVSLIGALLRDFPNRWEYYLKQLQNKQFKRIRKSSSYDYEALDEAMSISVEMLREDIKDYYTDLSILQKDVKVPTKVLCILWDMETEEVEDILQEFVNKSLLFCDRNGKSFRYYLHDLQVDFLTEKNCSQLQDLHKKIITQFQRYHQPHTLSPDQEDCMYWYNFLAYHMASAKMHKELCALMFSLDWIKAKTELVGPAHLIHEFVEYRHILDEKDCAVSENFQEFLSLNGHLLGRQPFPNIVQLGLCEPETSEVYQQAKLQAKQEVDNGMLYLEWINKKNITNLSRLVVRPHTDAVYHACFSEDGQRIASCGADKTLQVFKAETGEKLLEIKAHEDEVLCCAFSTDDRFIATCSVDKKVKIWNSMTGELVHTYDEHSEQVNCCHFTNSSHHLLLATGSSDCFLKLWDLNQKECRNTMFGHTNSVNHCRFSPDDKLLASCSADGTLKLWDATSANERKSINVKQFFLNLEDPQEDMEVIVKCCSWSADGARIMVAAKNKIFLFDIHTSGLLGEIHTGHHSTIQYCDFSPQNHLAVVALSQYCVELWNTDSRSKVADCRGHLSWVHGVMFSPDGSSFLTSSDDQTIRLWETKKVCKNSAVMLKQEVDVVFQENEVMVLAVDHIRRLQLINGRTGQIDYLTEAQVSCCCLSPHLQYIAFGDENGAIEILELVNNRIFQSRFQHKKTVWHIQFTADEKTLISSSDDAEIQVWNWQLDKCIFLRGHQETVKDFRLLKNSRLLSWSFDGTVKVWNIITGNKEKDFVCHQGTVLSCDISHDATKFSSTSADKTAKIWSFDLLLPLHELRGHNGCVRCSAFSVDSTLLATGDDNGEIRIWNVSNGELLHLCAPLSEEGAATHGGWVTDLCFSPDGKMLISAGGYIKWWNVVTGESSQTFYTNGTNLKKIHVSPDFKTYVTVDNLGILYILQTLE
It counts as functional.

Assay [10] deals with Streptococcus sp. 'group A'. Description: Streptococcus pyogenes SK(-)GAS viability under kanamycin – luminescence, BacTiterGlo, confirmation, counter-screen for streptokinase expression inhibitor project, dose response (AID 1900). It counts as functional, organism-based. (In general: The purpose of a counterscreen is to sort out artefacts and off-target activity.)
In assay [11] the target is T2, Streptokinase A (Streptococcus pyogenes serotype M1, UniProt P10520).
T2 sequence (P10520 whole entry): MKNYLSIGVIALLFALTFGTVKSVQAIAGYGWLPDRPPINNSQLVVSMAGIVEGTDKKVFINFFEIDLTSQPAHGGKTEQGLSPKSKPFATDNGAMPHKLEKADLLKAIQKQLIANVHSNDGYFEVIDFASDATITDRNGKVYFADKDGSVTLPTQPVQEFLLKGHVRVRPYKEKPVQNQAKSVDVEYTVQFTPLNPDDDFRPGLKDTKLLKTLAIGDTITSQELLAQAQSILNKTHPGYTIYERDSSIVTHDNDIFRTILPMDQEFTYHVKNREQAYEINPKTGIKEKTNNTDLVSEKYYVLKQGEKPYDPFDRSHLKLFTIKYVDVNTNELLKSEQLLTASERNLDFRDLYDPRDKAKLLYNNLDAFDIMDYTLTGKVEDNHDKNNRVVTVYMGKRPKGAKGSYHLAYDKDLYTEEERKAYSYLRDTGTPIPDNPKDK
The assay is described as follows: viability-normalized secreted streptokinase activity reduction – plasminogen activation absorbance, OD405, dose response (AID 1914).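 Further: secreted streptokinase activity via plasminogen activation per viability signal from cell pellet.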 It counts as functional, Streptococcus pyogenes M1 GAS.

Assay [12] has as its system Streptococcus. The assay is described as follows: GAS UMAA2166 growth inhibition – luminescence, BacTiterGlo, counter-screen for streptokinase expression inhibitor project, dose response (AID 1915).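 Further: potency for reduction of bacterial viability or growth.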 In kind it is functional, organism-based.
Assay [13] has as its system CHO. Description: CHO cell viability loss, potency – luminescence, cytotoxicity control for TLR9-MyD88 binding inhibitor project, dose response (AID 588339).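 Further: CHO cells stably coexpressing TLR9 and MyD88 fusions from primary screen; compound exposure lasted 48 hours before viability readout.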 In kind it is functional, cell-based, hamster. To be noted: Cricetulus griseus.
The target of assay [14] is Beta Lactamase (Pseudomonas aeruginosa, UniProt Q932Y6). Description: BLA reporter interference, concentration series – BLA reporter cells, FRET fluorescence, artefact control for TLR9-MyD88 binding inhibitor project, dose response (AID 588341).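 Further: cell based assay in CHO-K1 cells stably expressing beta-lactamase.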 It counts as cell-based.
Beta Lactamase, sequence (Q932Y6 whole entry, the tested form may be a part): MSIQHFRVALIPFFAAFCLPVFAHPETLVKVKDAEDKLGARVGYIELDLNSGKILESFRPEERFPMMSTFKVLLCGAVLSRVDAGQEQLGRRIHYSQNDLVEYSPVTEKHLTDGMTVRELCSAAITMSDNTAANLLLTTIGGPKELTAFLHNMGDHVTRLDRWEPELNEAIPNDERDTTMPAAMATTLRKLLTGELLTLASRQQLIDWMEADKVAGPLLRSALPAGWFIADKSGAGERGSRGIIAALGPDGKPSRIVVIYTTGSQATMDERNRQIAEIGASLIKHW
For assay [15], the target named is Photoreceptor-specific nuclear receptor (Homo sapiens, UniProt Q9Y5X4). It counts as functional, cell-based.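 Further: CHO-S cells with Gal4-NCOR and VP16-NR2E3 two-hybrid luciferase reporter.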
Photoreceptor-specific nuclear receptor, sequence (Q9Y5X4 whole entry, the tested form may be a part): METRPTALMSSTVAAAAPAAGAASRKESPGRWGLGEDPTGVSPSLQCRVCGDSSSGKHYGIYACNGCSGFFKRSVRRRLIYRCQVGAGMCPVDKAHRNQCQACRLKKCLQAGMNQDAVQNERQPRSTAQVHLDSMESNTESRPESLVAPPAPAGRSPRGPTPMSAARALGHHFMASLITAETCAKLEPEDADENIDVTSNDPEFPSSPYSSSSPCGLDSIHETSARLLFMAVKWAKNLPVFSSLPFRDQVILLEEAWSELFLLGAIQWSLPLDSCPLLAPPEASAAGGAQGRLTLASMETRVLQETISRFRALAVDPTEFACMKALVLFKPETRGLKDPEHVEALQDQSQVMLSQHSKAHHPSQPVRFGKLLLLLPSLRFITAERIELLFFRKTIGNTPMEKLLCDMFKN
A short description of assay [16]: general mammalian cell viability loss – inhibitor set, cherry-pick, set 2, cytotoxicity control for miR-122 modulator project, dose response (AID 720697). In kind it is functional, cell-based.
Assay [17] relates to HeLa. Description: viability loss in HeLa cells – cell-based, ATP luminescence, cherry-pick samples, cytotoxicity control, dose response (AID 687004). It counts as functional. To be noted: Homo sapiens.
The nature of assay [18]: P. falciparum Dd2 growth inhibitors, dose response, SYBR Green, cherry-picked samples (AID 1159567). In kind it is functional, cell-based.
Assay [19] can be described thus: activation of miR-122 Renilla sensor silencing – cell-based, Huh7 psiCHECK-miR122, Renilla luciferase, cherry-picked, dose response (AID 651956).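 Further: huh7 hepatoma cells stably carrying a psiCHECK-2 miR-122 sensor plasmid; renilla luciferase signal reporting endogenous miR-122 activity after 48 h compound exposure.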 It counts as functional.
In assay [20] the target is Paired box protein Pax-8 (Homo sapiens, UniProt Q06710). Description: PAX8 transcriptional activity inhibition in RMG-I – RMG-I cells, luciferase, cherry-pick, dose response (AID 687027).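 Further: luciferase reporter driven by Pax8 target thyroperoxidase promoter measured by SteadyGlo luminescence.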 It counts as functional, cell-based.
Paired box protein Pax-8, sequence (Q06710 whole entry): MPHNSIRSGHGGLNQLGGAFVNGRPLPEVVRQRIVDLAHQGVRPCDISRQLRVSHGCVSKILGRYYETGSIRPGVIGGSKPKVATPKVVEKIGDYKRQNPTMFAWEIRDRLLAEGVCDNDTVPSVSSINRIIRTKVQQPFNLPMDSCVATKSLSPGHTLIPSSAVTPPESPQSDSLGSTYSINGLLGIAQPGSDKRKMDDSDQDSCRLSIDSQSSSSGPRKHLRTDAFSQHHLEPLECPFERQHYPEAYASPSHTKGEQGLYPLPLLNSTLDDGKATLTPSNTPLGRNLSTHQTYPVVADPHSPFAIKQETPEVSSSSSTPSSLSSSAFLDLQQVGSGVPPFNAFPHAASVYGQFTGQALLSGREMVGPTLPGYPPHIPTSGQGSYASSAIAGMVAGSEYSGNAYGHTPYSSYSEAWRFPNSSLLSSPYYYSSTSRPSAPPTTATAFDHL
In assay [21] the target is T3, RNA-editing ligase 1, mitochondrial (Trypanosoma brucei brucei, UniProt P86926).
T3 sequence (P86926 whole entry): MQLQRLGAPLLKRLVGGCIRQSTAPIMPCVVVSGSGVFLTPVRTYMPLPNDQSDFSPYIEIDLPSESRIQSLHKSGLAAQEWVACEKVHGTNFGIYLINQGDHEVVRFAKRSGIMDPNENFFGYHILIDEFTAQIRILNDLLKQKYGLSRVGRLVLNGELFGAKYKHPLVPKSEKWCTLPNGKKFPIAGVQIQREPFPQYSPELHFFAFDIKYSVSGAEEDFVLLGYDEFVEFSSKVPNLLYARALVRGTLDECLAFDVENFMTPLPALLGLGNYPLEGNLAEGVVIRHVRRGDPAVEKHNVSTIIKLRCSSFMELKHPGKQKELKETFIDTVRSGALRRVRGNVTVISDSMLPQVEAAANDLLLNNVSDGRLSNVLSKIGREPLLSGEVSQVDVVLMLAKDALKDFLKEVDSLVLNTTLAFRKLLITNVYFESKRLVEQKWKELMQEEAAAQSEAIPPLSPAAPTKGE
Description: inhibition of trypanosome RNA editing ligase – biochemical, fluorescence, Trypanosoma brucei, dose response (AID 1117295). It counts as functional.

Activity calls are given as the source filed them.

For orientation: CC50 means the concentration that lowers cell viability or growth by half. What is called EC50 is the midpoint of the concentration-response curve. Turning to `CC(C)(CN=C(S)NCCc1ccccc1)CN=C(S)NCCc1ccccc1`, in assay [1], the 50% cytotoxic concentration (CC50) is 23.7 µM (active). Besides, the values for the EC50 in assay [2] and in assay [3] were 3.35 µM (active) and > 60 µM (not active), respectively.
One may read the IC50 as the midpoint of a concentration-inhibition curve. For `COC(=O)C1=C(c2ccc(F)cc2OCc2ccccc2)C[C@@H]2CC[C@H]1N2C(=O)NCc1cccc(C(F)(F)F)c1`, the IC50 in assay [4] and in assay [5] was > 69.5 µM (inactive) in each case.
Broadly, the AC50 is the midpoint of the concentration-response curve, whichever way the signal moves. Regarding `COc1ccc(C2=C(NC(=O)c3cccc(OC)c3)C(=O)c3ccccc3C2=O)cc1`, the figures for the concentration at half-maximal activity (AC50) in assay [6] and in assay [7] were 29.5 µM (active) and 13.6 µM (active), respectively.
Take `CCN(CC)CCOc1ccc(/C(=C(\Cl)c2ccccc2)c2ccccc2)cc1` [CLOMIPHENE]: in assay [8], the IC50 was > 40 µM (inactive).
Regarding `COCCN(Cc1ccccc1)C(=O)c1cccc(S(=O)(=O)N2CCN(c3ccccc3)CC2)c1`, the IC50 in assay [9] was > 100 µM (inactive).
Turning to `COc1ccc(NC(S)=Nc2nc(CC(=O)Nc3ccccc3OC)cs2)cc1`, the results for the half-maximal effective concentration (EC50) in [10], in assay [11] and in assay [12] were 6.09 µM (active), > 150 µM (not active) and 17.3 µM (active), respectively. Besides, the IC50 in [4] is > 69.5 µM (inactive); in assay [5] it was > 2.58 µM (active).
Take `O=C1COc2ccc(C(=O)CSc3nc4ccccc4c(=O)n3-c3ccc(Cl)c(Cl)c3)cc2N1`: the CC50 in [1] is 16.6 µM (active).
As for `CCc1noc(C)c1C(=O)OC(C)C(=O)Nc1ccc2c(c1)OCO2` (stereo unspecified), the IC50 in [4] and in assay [5] was > 69.6 µM (inactive) throughout.
Consider `Cc1ccc(S(=O)(=O)c2ccc([N+](=O)[O-])o2)cc1`, for which the IC50 is 0.745 µM (active) in [13], 11.2 µM (inactive) in assay [14] and 2.9 µM (active) in assay [15].
As to `Cc1ccc(C(=O)NC2=C(c3ccccc3)C(=O)c3ccccc3C2=O)o1`, the half-maximal activity concentration (AC50) was 21.8 µM (active) in [6] and 19.1 µM (active) in [7].
For `COc1ccc(C2=C(NC(=O)c3ccccc3Cl)C(=O)c3ccccc3C2=O)cc1`, the AC50 was 17.5 µM (active) in assay [6] and 11.8 µM (active) in assay [7].
`CN1C(=O)c2cc(NC(=O)Cc3ccccc3)ccc2OC[C@H]2O[C@@H](CC(=O)NC3CCC3)CC[C@@H]21`: in assay [16], the half-maximal activity concentration (AC50) is 9.59 µM (active).
For the compound `C[C@@H]1CN([C@@H](C)CO)C(=O)c2cc(NC(=O)Nc3ccccc3)ccc2O[C@@H]1CN(C)C(=O)Nc1cccc2ccccc12`, the values for the AC50 in [17] and in [18] were > 52 µM (inactive) and 8.14 µM (active), respectively.
`C[C@H](CO)N1C[C@H](C)[C@@H](CN(C)Cc2ccc(-c3ccccc3)cc2)Oc2ccc(NC(=O)Cc3ccccc3)cc2CC1=O`: the half-maximal activity concentration (AC50) is 21.3 µM (active) in [19], 9.36 µM (active) in assay [20] and 28.7 µM (active) in [16].
On to `CC1CCCCN1C(=O)CSc1nc(C2CC2)nc2c1cnn2-c1ccccc1` (stereo unspecified), for which the AC50 in [17] was > 52 µM (inactive).
As for `O=C(CCN1C(=O)/C(=C/c2ccc(F)cc2)SC1=S)N[C@@H](CO)Cc1ccccc1`, the 50% cytotoxic concentration (CC50) in assay [1] is 49.9 µM (active).
For the compound `COC(=O)C1=C(C)N(Cc2cccc(C(F)(F)F)c2)C(NCc2ccc(OC)cc2)=NC1c1ccccc1C(F)(F)F` (stereo unspecified), in assay [21], the IC50 was > 96.6 µM (inactive).
For `COc1cc(C(=O)Oc2ccccc2N)cc(OC)c1OC`, the AC50 in assay [17] was > 52 µM (inactive).
For the compound `CCN(CC)CCNC1=C(Nc2ccccc2)C(=O)c2ccccc2C1=O`, the AC50 in [6] and in assay [7] was > 70 µM (inactive) throughout.
